Literature values, collected in US10835538B2, “Method of treating benign prostatic hyperlasia with antibiotics” (Nymox Corporation, priority 2018, dated 2020).

Q: With `CC(COc1ccccc1)N(CCCl)Cc1ccccc1` (centres unmarked) [phenoxybenzamine] as the compound, how does the “Cases treated in which side effects cannot be tolerated and therapy has to be abandoned” value (human, in vivo) read?
A: about 10%

Q: What about the “Patients treated for BPH in whom side effects are present” value (hypotension, dizziness, faintness, tachycardia, weakness, retrograde or absent ejaculation) of the same compound?
A: approximately 30%
